Experimental data reported in patent publication CN113018415A, “一种新的药物组合及其应用” (priority 2021, dated 2021).
Peptide text beside a SMILES is read from it. * marks the point of attachment. Cbz = O=C(OCc1ccccc1)*

Legend:
急性早幼粒白血病细胞NB4 [1] = experiment: MTT cell survival assay, NB4 cells; format: cell-based; conditions: 48 h; for Enhancement of the cancer cell inhibition of arsenic trioxide by a proteasome inhibitor: proteasome inhibitor fixed 40 nM combined with arsenic trioxide 0.1-0.5 μM, Fig. 6; for 细胞存活率 (cell survival rate): arsenic trioxide 0.1-0.5 μM, oprozomib 5-40 nM, alone or combined (fixed 40 nM oprozomib or fixed 0.4 μM arsenic trioxide), Fig. 1, 2
急性早幼粒白血病细胞NB4 [2] = experiment: Mouse APL model: flow cytometry of bone marrow cells for human CD33+; format: in vivo, NOD/SCID小鼠; conditions: moribund mice, bone marrow cultured 24 h; oprozomib 0.43 mg/kg iv, arsenic trioxide 1.53 mg/kg iv; compared with positive control; Fig. 8-12
急性早幼粒白血病细胞NB4 [3] = experiment: Mouse APL model: HE staining of liver and spleen sections; format: in vivo, NOD/SCID小鼠; conditions: oprozomib 0.43 mg/kg iv, arsenic trioxide 1.53 mg/kg iv; compared with control group; Fig. 13
急性早幼粒白血病细胞HL-60 = experiment: MTT cell survival assay, HL-60 cells; format: cell-based; conditions: HL-60, MTT, 48 h; arsenic trioxide 0.4-2 μM, oprozomib 40-200 nM, alone or combined (fixed 160 nM oprozomib or fixed 1.2 μM arsenic trioxide); Fig. 3, 4
人肝癌细胞SMMC-7721 = experiment: MTT cell survival assay, SMMC-7721 cells; format: cell-based, 人; conditions: SMMC-7721, MTT, 48 h; arsenic trioxide 0.4 μM, oprozomib 40 nM, alone or combined; Fig. 5
急性早幼粒白血病细胞NB4 [4] = experiment: Mouse APL model: CD33 immunohistochemistry of liver and spleen sections; format: in vivo, NOD/SCID小鼠; conditions: oprozomib 0.43 mg/kg iv, arsenic trioxide 1.53 mg/kg iv; compared with control group; Fig. 14
慢性髓性白血病细胞K562 = experiment: MTT cell survival assay, K562 cells; format: cell-based; conditions: 48 h, arsenic trioxide 0.4 μM, oprozomib 40 nM, alone or combined, Fig. 5
人结直肠腺癌细胞CaCo-2 = experiment: MTT cell survival assay, CaCo-2 cells; format: cell-based, 人; conditions: CaCo-2, MTT, 48 h; arsenic trioxide 0.4 μM, oprozomib 40 nM, alone or combined; Fig. 5

SMILES	Enhancement of the cancer cell inhibition of arsenic trioxide by a proteasome inhibitor (急性早幼粒白血病细胞NB4 [1])	Human CD33+ positive cells in mouse bone marrow (急性早幼粒白血病细胞NB4 [2])	Infiltrating tumour cells in liver and spleen (HE staining) (急性早幼粒白血病细胞NB4 [3])	细胞存活率 (cell survival rate) (急性早幼粒白血病细胞HL-60)	细胞存活率 (cell survival rate) (急性早幼粒白血病细胞NB4 [1])	细胞存活率 (cell survival rate) (人肝癌细胞SMMC-7721)	Human CD33 expression in liver and spleen sections (immunohistochemistry) (急性早幼粒白血病细胞NB4 [4])	细胞存活率 (cell survival rate) (慢性髓性白血病细胞K562)	细胞存活率 (cell survival rate) (人结直肠腺癌细胞CaCo-2)
CC(C)C[C@@H](C=O)NC(=O)[C@H](CC(C)C)NC(=O)[C@H](CC(C)C)NC(=O)OCc1ccccc1 [MG132] (Cbz-Leu-Leu-Leu-aldehyde)	并不能增加三氧化二砷的癌细胞抑制效果								
O=[As][As+](=O)[O-] (stereo not drawn) [三氧化二砷]		有所减少	略有减少但不明显	无明显影响	无明显影响	无明显影响	略有减少但不明显	无明显影响	无明显影响
COC[C@H](NC(=O)c1cnc(C)s1)C(=O)N[C@@H](COC)C(=O)N[C@@H](Cc1ccccc1)C(=O)[C@@]1(C)CO1 [奥普佐米]	能极大地提升三氧化二砷的癌细胞抑制效果	有所减少	略有减少但不明显	无明显影响	无明显影响	无明显影响	略有减少但不明显	无明显影响	无明显影响
